# Activity calls are given as the source filed them. The calls are words filed in the database; no cut-off is given here.
# Columns and labels:
# Type in all cases: functional, organism-based
# [1] = test system: Staphylococcus aureus; assay: Antimicrobial activity against Staphylococcus aureus assessed as visible growth at 0.25 ug/ml after 24 hrs
# [2] = test system: Staphylococcus aureus; assay: Antimicrobial activity against Staphylococcus aureus expressing mgrA C12S mutant gene assessed as visible growth at 0.45 ug/ml after 24 hrs in presence of 20 uM paraquat
# [3] = test system: Staphylococcus aureus; assay: Antimicrobial activity against Staphylococcus aureus expressing mgrA C12S mutant gene assessed as visible growth at 0.75 ug/ml after 24 hrs
# [4] = test system: Staphylococcus aureus; assay: Antimicrobial activity against Staphylococcus aureus expressing mgrA C12S mutant gene assessed as visible growth at 0.75 ug/ml after 24 hrs in presence of 20 uM paraquat
# [5] = test system: Staphylococcus aureus; assay: Antimicrobial activity against Staphylococcus aureus expressing mgrA C12S mutant gene harboring Pyj335-His-mgrA C12S assessed as visible growth at 0.20 ug/ml after 24 hrs
# [6] = test system: Staphylococcus aureus; assay: Antimicrobial activity against Staphylococcus aureus expressing mgrA C12S mutant gene harboring Pyj335-His-mgrAC12S assessed as visible growth at 0.20 ug/ml after 24 hrs in presence of 100 uM hydrogen peroxide
# [7] = test system: Staphylococcus aureus; assay: Antimicrobial activity against Staphylococcus aureus expressing mgrA C12S mutant gene harboring Pyj335-His-mgrA assessed as visible growth at 0.20 ug/ml after 24 hrs in presence of 100 uM hydrogen peroxide
# [8] = test system: Staphylococcus aureus; assay: Antimicrobial activity against Staphylococcus aureus expressing mgrA C12S mutant gene harboring plasmid Pyj335 assessed as visible growth at 0.20 ug/ml after 24 hrs
# [9] = test system: Staphylococcus aureus; assay: Antimicrobial activity against Staphylococcus aureus expressing mgrAC12S mutant gene harboring plasmid Pyj335 assessed as visible growth at 0.55 ug/ml after 24 hrs
# [10] = test system: Staphylococcus aureus; assay: Antimicrobial activity against Staphylococcus aureus expressing mgrA C12S mutant gene harboring Pyj335-His-mgrA assessed as visible growth at 0.25 ug/ml after 24 hrs
# [11] = test system: Staphylococcus aureus; assay: Antimicrobial activity against Staphylococcus aureus expressing mgrA C12S mutant gene harboring Pyj335-His-mgrA assessed as visible growth at 0.35 ug/ml after 24 hrs
# [12] = test system: Staphylococcus aureus; assay: Antimicrobial activity against Staphylococcus aureus expressing mgrA C12S mutant gene harboring Pyj335-His-mgrA C12S assessed as visible growth at 1.1 ug/ml after 24 hrs
# [13] = test system: Staphylococcus aureus; assay: Antimicrobial activity against Staphylococcus aureus expressing mgrA C12S mutant gene harboring Pyj335-His-mgrA C12S assessed as visible growth at 1.1 ug/ml after 24 hrs in presence of 100 uM hydrogen peroxide
# [14] = test system: Staphylococcus aureus; assay: Antimicrobial activity against Staphylococcus aureus expressing mgrA C12S mutant gene assessed as visible growth at 1.1 ug/ml after 24 hrs
# [15] = test system: Staphylococcus aureus; assay: Antimicrobial activity against Staphylococcus aureus assessed as visible growth at 1.1 ug/ml after 24 hrs
# [16] = test system: Staphylococcus aureus; assay: Antimicrobial activity against Staphylococcus aureus assessed as visible growth at 1.1 ug/ml after 24 hrs in presence of 25 uM paraquat
# [17] = test system: Staphylococcus aureus; assay: Antimicrobial activity against Staphylococcus aureus expressing mgrA C12S mutant gene harboring plasmid Pyj335 assessed as visible growth at 1.1 ug/ml after 24 hrs in presence of 25 uM paraquat
# [18] = test system: Staphylococcus aureus; assay: Antimicrobial activity against Staphylococcus aureus expressing mgrA C12S mutant gene harboring plasmid Pyj335 assessed as visible growth at 1.4 ug/ml after 24 hrs
# [19] = test system: Staphylococcus aureus; assay: Antimicrobial activity against Staphylococcus aureus expressing mgrA C12S mutant gene harboring plasmid Pyj335 assessed as visible growth at 1.8 ug/ml after 24 hrs
# [20] = test system: Staphylococcus aureus; assay: Antimicrobial activity against Staphylococcus aureus expressing mgrA C12S mutant gene harboring plasmid Pyj335 assessed as visible growth at 2.2 ug/ml after 24 hrs in presence of 20 uM paraquat
SMILES,Activity [1],Activity [2],Activity [3],Activity [4],Activity [5],Activity [6],Activity [7],Activity [8],Activity [9],Activity [10],Activity [11],Activity [12],Activity [13],Activity [14],Activity [15],Activity [16],Activity [17],Activity [18],Activity [19],Activity [20]
O=C(O)c1cn(C2CC2)c2cc(N3CCNCC3)c(F)cc2c1=O [CIPROFLOXACIN],inactive,inactive,Active,Active,Active,Active,Active,inactive,inactive,inactive,Active,,,,,,,,,
CN[C@H](CC(C)C)C(=O)N[C@H]1C(=O)N[C@@H](CC(N)=O)C(=O)N[C@H]2C(=O)N[C@H]3C(=O)N[C@H](C(=O)N[C@H](C(=O)O)c4cc(O)cc(O)c4-c4cc3ccc4O)[C@H](O)c3ccc(c(Cl)c3)Oc3cc2cc(c3O[C@@H]2O[C@H](CO)[C@@H](O)[C@H](O)[C@H]2O[C@H]2C[C@](C)(N)[C@H](O)[C@H](C)O2)Oc2ccc(cc2Cl)[C@H]1O [VANCOMYCIN],,,,,,,,,,,,Active,Active,inactive,Active,Active,inactive,inactive,inactive,inactive

# Reference: ChEMBL document CHEMBL1240316, “An oxidation-sensing mechanism is used by the global regulator MgrA in Staphylococcus aureus” (2006)
